Values quoted from earlier work as cited in US6432422B1, “Creams containing vitamin D3 derivatives” (Chugai Seiyaku Kabushiki Kaisha, priority 1997, dated 2002).

How the values were obtained:
[1] = organic solvents such as ethanol and chloroform

stability in aqueous solutions (aqueous solutions): unstable in aqueous solutions
stability in base materials (base materials such as petrolatum): very high stability
solubility in organic solvents [1]: highly soluble
stability in organic solvents [1]: dramatically improved stability
solubility in water (water): scarcely soluble in water
SMILES: C=C1/C(=C\C=C2/CCC[C@]3(C)[C@@H]([C@H](C)OCCC(C)(C)O)CC[C@@H]23)C[C@@H](O)C[C@@H]1O [Maxacalcitol, 1α,3β-dihydroxy-20α-(3-hydroxy-3-methylbutyloxy)-9,10-seco-5,7,10(19)-pregnatriene]
effects on epidermal cells (epidermal cells): epidermal cell growth-inhibiting and differentiation-inducing effects
